{"source": "paper PMC8480901", "about": "(PLoS ONE, 2021)", "test_system": "human PBMCs", "assay": "LPS-induced cytokine and chemokine levels in human PBMC supernatant (Luminex, ELISA)", "format": "cell-based", "conditions": "for CCl2, % reduction / CXCL1 % reduction / CXCL2 % reduction / MMP9 % reduction / CCl2, Mean / CXCL1, Mean / CXCL2, Mean / MMP9, Mean / CCl2, individual value / CXCL1, individual value / CXCL2, individual value / MMP9, individual value: LPS-stimulated PBMC supernatant; for CCl2, Mean / CXCL1, Mean / CXCL2, Mean / MMP9, Mean: sample size 2; for CCl2, individual value / CXCL1, individual value / CXCL2, individual value / MMP9, individual value: single replicate", "key": {"[1]": {"conditions": "LPS-stimulated human PBMC supernatant, 0.03 µM"}}, "note": "“And” between values parts separate entries of the source, which are not always exact repeats. Identical values can stand only once.", "data": [{"smiles": "C=C[C@]1(C)C[C@@H](OC(=O)CS[C@@H]2CC[C@@H](N)C[C@H]2O)[C@]2(C)[C@H](C)CC[C@]3(CCC(=O)[C@H]32)[C@@H](C)[C@@H]1O", "note": "[Lefamulin]", "values": [{"measurement": "CCl2, % reduction", "setting": "0.03 µM", "value": -3.52, "unit": "%"}, {"measurement": "CXCL1 % reduction", "setting": "0.03 µM", "value": -11, "unit": "%"}, {"measurement": "CXCL2 % reduction", "setting": "0.03 µM", "value": -3, "unit": "%"}, {"measurement": "MMP9 % reduction", "setting": "0.03 µM", "value": -7, "unit": "%"}, {"measurement": "CCl2, Mean", "setting": "0.03 µM", "value": 1309, "unit": "pg/mL"}, {"measurement": "CXCL1, Mean", "setting": "0.03 µM", "value": 6607, "unit": "pg/mL"}, {"measurement": "CXCL2, Mean", "setting": "0.03 µM", "value": 5213, "unit": "pg/mL"}, {"measurement": "MMP9, Mean", "setting": "0.03 µM", "value": 3113, "unit": "pg/mL"}, {"measurement": "CCl2, individual value", "setting": "0.03 µM", "value": "1274 pg/mL and 1344 pg/mL"}, {"measurement": "CXCL1, individual value", "setting": "0.03 µM", "value": "6599 pg/mL and 6616 pg/mL"}, {"measurement": "CXCL2, individual value", "setting": "0.03 µM", "value": "5117 pg/mL and 5308 pg/mL"}, {"measurement": "MMP9, individual value", "setting": "0.03 µM", "value": "3135 pg/mL and 3092 pg/mL"}, {"measurement": "CCl2, % reduction", "setting": "0.1 µM", "value": -1, "unit": "%"}, {"measurement": "CXCL1 % reduction", "setting": "0.1 µM", "value": -3, "unit": "%"}, {"measurement": "CXCL2 % reduction", "setting": "0.1 µM", "value": 3, "unit": "%"}, {"measurement": "MMP9 % reduction", "setting": "0.1 µM", "value": 6, "unit": "%"}, {"measurement": "CCl2, Mean", "setting": "0.1 µM", "value": 1279, "unit": "pg/mL"}, {"measurement": "CXCL1, Mean", "setting": "0.1 µM", "value": 6126, "unit": "pg/mL"}, {"measurement": "CXCL2, Mean", "setting": "0.1 µM", "value": 4904, "unit": "pg/mL"}, {"measurement": "MMP9, Mean", "setting": "0.1 µM", "value": 2899, "unit": "pg/mL"}, {"measurement": "CCl2, individual value", "setting": "0.1 µM", "value": "1178 pg/mL and 1379 pg/mL"}, {"measurement": "CXCL1, individual value", "setting": "0.1 µM", "value": "5750 pg/mL and 6502 pg/mL"}, {"measurement": "CXCL2, individual value", "setting": "0.1 µM", "value": "4854 pg/mL and 4955 pg/mL"}, {"measurement": "MMP9, individual value", "setting": "0.1 µM", "value": "2852 pg/mL and 2946 pg/mL"}, {"measurement": "CCl2, % reduction", "setting": "0.3 µM", "value": -8, "unit": "%"}, {"measurement": "CXCL1 % reduction", "setting": "0.3 µM", "value": -11, "unit": "%"}, {"measurement": "CXCL2 % reduction", "setting": "0.3 µM", "value": -1.83, "unit": "%"}, {"measurement": "MMP9 % reduction", "setting": "0.3 µM", "value": -13, "unit": "%"}, {"measurement": "CCl2, Mean", "setting": "0.3 µM", "value": 1360, "unit": "pg/mL"}, {"measurement": "CXCL1, Mean", "setting": "0.3 µM", "value": 6577, "unit": "pg/mL"}, {"measurement": "CXCL2, Mean", "setting": "0.3 µM", "value": 5150, "unit": "pg/mL"}, {"measurement": "MMP9, Mean", "setting": "0.3 µM", "value": 3213, "unit": "pg/mL"}, {"measurement": "CCl2, individual value", "setting": "0.3 µM", "value": "1440 pg/mL and 1281 pg/mL"}, {"measurement": "CXCL1, individual value", "setting": "0.3 µM", "value": "6950 pg/mL and 6204 pg/mL"}, {"measurement": "CXCL2, individual value", "setting": "0.3 µM", "value": "5157 pg/mL and 5144 pg/mL"}, {"measurement": "MMP9, individual value", "setting": "0.3 µM", "value": "3328 pg/mL and 3097 pg/mL"}, {"measurement": "CCl2, % reduction", "setting": "1 µM", "value": -4.42, "unit": "%"}, {"measurement": "CXCL1 % reduction", "setting": "1 µM", "value": -4.56, "unit": "%"}, {"measurement": "CXCL2 % reduction", "setting": "1 µM", "value": 2.67, "unit": "%"}, {"measurement": "MMP9 % reduction", "setting": "1 µM", "value": -10, "unit": "%"}, {"measurement": "CCl2, Mean", "setting": "1 µM", "value": 1320, "unit": "pg/mL"}, {"measurement": "CXCL1, Mean", "setting": "1 µM", "value": 6222, "unit": "pg/mL"}, {"measurement": "CXCL2, Mean", "setting": "1 µM", "value": 4923, "unit": "pg/mL"}, {"measurement": "MMP9, Mean", "setting": "1 µM", "value": 3154, "unit": "pg/mL"}, {"measurement": "CCl2, individual value", "setting": "1 µM", "value": "1176 pg/mL and 1464 pg/mL"}, {"measurement": "CXCL1, individual value", "setting": "1 µM", "value": "5695 pg/mL and 6750 pg/mL"}, {"measurement": "CXCL2, individual value", "setting": "1 µM", "value": "4726 pg/mL and 5120 pg/mL"}, {"measurement": "MMP9, individual value", "setting": "1 µM", "value": "3230 pg/mL and 3077 pg/mL"}, {"measurement": "CCl2, % reduction", "setting": "3 µM", "value": -29, "unit": "%"}, {"measurement": "CXCL1 % reduction", "setting": "3 µM", "value": -12, "unit": "%"}, {"measurement": "CXCL2 % reduction", "setting": "3 µM", "value": -3.75, "unit": "%"}, {"measurement": "MMP9 % reduction", "setting": "3 µM", "value": -3, "unit": "%"}, {"measurement": "CCl2, Mean", "setting": "3 µM", "value": 1626, "unit": "pg/mL"}, {"measurement": "CXCL1, Mean", "setting": "3 µM", "value": 6685, "unit": "pg/mL"}, {"measurement": "CXCL2, Mean", "setting": "3 µM", "value": 5247, "unit": "pg/mL"}, {"measurement": "MMP9, Mean", "setting": "3 µM", "value": 3044, "unit": "pg/mL"}, {"measurement": "CCl2, individual value", "setting": "3 µM", "value": "1606 pg/mL and 1647 pg/mL"}, {"measurement": "CXCL1, individual value", "setting": "3 µM", "value": "6614 pg/mL and 6757 pg/mL"}, {"measurement": "CXCL2, individual value", "setting": "3 µM", "value": "5389 pg/mL and 5104 pg/mL"}, {"measurement": "MMP9, individual value", "setting": "3 µM", "value": "3098 pg/mL and 2991 pg/mL"}, {"measurement": "CCl2, % reduction", "setting": "10 µM", "value": -40, "unit": "%"}, {"measurement": "CXCL1 % reduction", "setting": "10 µM", "value": -16, "unit": "%"}, {"measurement": "CXCL2 % reduction", "setting": "10 µM", "value": 2.3, "unit": "%"}, {"measurement": "MMP9 % reduction", "setting": "10 µM", "value": 13, "unit": "%"}, {"measurement": "CCl2, Mean", "setting": "10 µM", "value": 1763, "unit": "pg/mL"}, {"measurement": "CXCL1, Mean", "setting": "10 µM", "value": 6870, "unit": "pg/mL"}, {"measurement": "CXCL2, Mean", "setting": "10 µM", "value": 4942, "unit": "pg/mL"}, {"measurement": "MMP9, Mean", "setting": "10 µM", "value": 2781, "unit": "pg/mL"}, {"measurement": "CCl2, individual value", "setting": "10 µM", "value": "1714 pg/mL and 1811 pg/mL"}, {"measurement": "CXCL1, individual value", "setting": "10 µM", "value": "6794 pg/mL and 6946 pg/mL"}, {"measurement": "CXCL2, individual value", "setting": "10 µM", "value": "4972 pg/mL and 4912 pg/mL"}, {"measurement": "MMP9, individual value", "setting": "10 µM", "value": "2867 pg/mL and 2696 pg/mL"}, {"measurement": "CCl2, % reduction", "setting": "30 µM", "value": 8, "unit": "%"}, {"measurement": "CXCL1 % reduction", "setting": "30 µM", "value": 7, "unit": "%"}, {"measurement": "CXCL2 % reduction", "setting": "30 µM", "value": 6, "unit": "%"}, {"measurement": "MMP9 % reduction", "setting": "30 µM", "value": 27, "unit": "%"}, {"measurement": "CCl2, Mean", "setting": "30 µM", "value": 1163, "unit": "pg/mL"}, {"measurement": "CXCL1, Mean", "setting": "30 µM", "value": 5540, "unit": "pg/mL"}, {"measurement": "CXCL2, Mean", "setting": "30 µM", "value": 4765, "unit": "pg/mL"}, {"measurement": "MMP9, Mean", "setting": "30 µM", "value": 2563, "unit": "pg/mL"}, {"measurement": "CCl2, individual value", "setting": "30 µM", "value": "1184 pg/mL and 1143 pg/mL"}, {"measurement": "CXCL1, individual value", "setting": "30 µM", "value": "5594 pg/mL and 5487 pg/mL"}, {"measurement": "CXCL2, individual value", "setting": "30 µM", "value": "4928 pg/mL and 4603 pg/mL"}, {"measurement": "MMP9, individual value", "setting": "30 µM", "value": "2485 pg/mL and 2640 pg/mL"}, {"measurement": "CCl2, % reduction", "setting": "100 µM", "value": 92, "unit": "%"}, {"measurement": "CXCL1 % reduction", "setting": "100 µM", "value": 73, "unit": "%"}, {"measurement": "CXCL2 % reduction", "setting": "100 µM", "value": 2.31, "unit": "%"}, {"measurement": "MMP9 % reduction", "setting": "100 µM", "value": 11, "unit": "%"}, {"measurement": "CCl2, Mean", "setting": "100 µM", "value": 141, "unit": "pg/mL"}, {"measurement": "CXCL1, Mean", "setting": "100 µM", "value": 1638, "unit": "pg/mL"}, {"measurement": "CXCL2, Mean", "setting": "100 µM", "value": 4941, "unit": "pg/mL"}, {"measurement": "MMP9, Mean", "setting": "100 µM", "value": 2809, "unit": "pg/mL"}, {"measurement": "CCl2, individual value", "setting": "100 µM", "value": 141, "unit": "pg/mL"}, {"measurement": "CXCL1, individual value", "setting": "100 µM", "value": "1562 pg/mL and 1715 pg/mL"}, {"measurement": "CXCL2, individual value", "setting": "100 µM", "value": "4788 pg/mL and 5094 pg/mL"}, {"measurement": "MMP9, individual value", "setting": "100 µM", "value": "2812 pg/mL and 2806 pg/mL"}, {"measurement": "GM-CSF % reduction", "setting": "[1]", "value": -7, "unit": "%"}, {"measurement": "GM-CSF [pg/mL], Mean", "setting": "[1]", "value": 705, "unit": "pg/mL"}, {"measurement": "GM-CSF [pg/mL], individual value", "setting": "[1]", "value": "721 pg/mL and 689 pg/mL"}, {"measurement": "IL-1β % reduction", "setting": "[1]", "value": -4.62, "unit": "%"}, {"measurement": "IL-1β [pg/mL], Mean", "setting": "[1]", "value": 13375, "unit": "pg/mL"}, {"measurement": "IL-1β [pg/mL], individual value", "setting": "[1]", "value": "13502 pg/mL and 13249 pg/mL"}, {"measurement": "IL-6 % reduction", "setting": "[1]", "value": 9, "unit": "%"}, {"measurement": "IL-6 [pg/mL], Mean", "setting": "[1]", "value": 31710, "unit": "pg/mL"}, {"measurement": "IL-6 [pg/mL], individual value", "setting": "[1]", "value": "32710 pg/mL and 30710 pg/mL"}, {"measurement": "IL-8 % reduction", "setting": "[1]", "value": -7, "unit": "%"}, {"measurement": "IL-8 [pg/mL], Mean", "setting": "[1]", "value": 3113, "unit": "pg/mL"}, {"measurement": "IL-8 [pg/mL], individual value", "setting": "[1]", "value": "3135 pg/mL and 3092 pg/mL"}]}]}
